9 molecules from ChEMBL document CHEMBL2412996, “Increase of anti-HIV activity of C-peptide fusion inhibitors using a bivalent drug design approach” (Bioorg Med Chem Lett, 2013) can be followed below.

Test [1] is described as follows: Inhibition of HIV1 HXB2 gp160-mediated cell-cell fusion between viral envelope expressing human HL2/3 cells to human TZM-bl cells expressing CD4, tat, and rev by luciferase reporter gene assay. It is filed as cell-based. Conditions: Human immunodeficiency virus 1, HXB2, TZM-bl. Background: Reporter assays use an easily measured gene product as a stand-in for the process of interest.

In the next test the test system is TZM-bl. Nature of the test: Inhibition of HIV1 HXB2 gp160-mediated cell-cell fusion between viral envelope expressing human HL2/3 cells to human TZM-bl cells expressing CD4, tat, and rev by luciferase reporter gene assay relative to C29. Format: cell-based. The conditions noted are these: Human immunodeficiency virus 1.

Numbered stars: 1 amine (or outer) side, 2 acyl side, 3 side chain; on linkers, the order of the positions; unused ones are H or OH. Square brackets hold non-standard residues; d marks the D form. Peptide text beside a SMILES is read from it. * marks the point of attachment. X2 = CC(=O)N[C@@H](CS)C(=O)OCCOCCOCCN([C@@H](Cc1c[nH]c2ccccc12)C(=O)[*:2])[*:1]; X1 = CC(=O)N[C@@H](CS)C(=O)OCCOCCOCCNCCC(=O)*; Ahx = NCCCCCC(=O)O; βAla = NCCC(=O)O

By IC50 is commonly meant the concentration that gives 50% inhibition. Read a low IC50 as greater potency.

Molecule `CC[C@H](C)[C@H](NC(=O)[C@H](CC(C)C)NC(=O)[C@H](CO)NC(=O)[C@H](Cc1cnc[nH]1)NC(=O)[C@@H](NC(=O)[C@H](CC(C)C)NC(=O)[C@H](CO)NC(=O)[C@@H](NC(=O)[C@H](Cc1ccc(O)cc1)NC(=O)[C@H](CC(N)=O)NC(=O)[C@H](CC(N)=O)NC(=O)[C@@H](NC(=O)[C@H](CCC(=O)O)NC(=O)[C@H](CCCNC(=N)N)NC(=O)[C@H](CC(=O)O)NC(=O)[C@H](Cc1c[nH]c2ccccc12)NC(=O)[C@H](CCC(=O)O)NC(=O)[C@H](CCSC)NC(=O)[C@H](Cc1c[nH]c2ccccc12)NC(C)=O)[C@@H](C)CC)[C@@H](C)O)[C@@H](C)CC)C(=O)N[C@@H](CCC(=O)O)C(=O)N[C@@H](CCC(=O)O)C(=O)N[C@@H](CO)C(=O)N[C@@H](CCC(N)=O)C(=O)N[C@@H](CC(N)=O)C(=O)N[C@@H](CCC(N)=O)C(=O)N[C@@H](CCC(N)=O)C(=O)N[C@@H](CCC(=O)O)C(=O)N[C@@H](CCCCN)C(=O)N[C@@H](CC(N)=O)C(=O)O` (Ac-WMEWDREINNYTSLIHSLIEESQNQQEKN-OH) displayed an IC50 in test [1] of 118 nM.
As to `CC[C@H](C)[C@H](NC(=O)[C@H](CC(C)C)NC(=O)[C@H](CO)NC(=O)[C@H](Cc1cnc[nH]1)NC(=O)[C@@H](NC(=O)[C@H](CC(C)C)NC(=O)[C@H](CO)NC(=O)[C@@H](NC(=O)[C@H](Cc1ccc(O)cc1)NC(=O)[C@H](CC(N)=O)NC(=O)[C@H](CC(N)=O)NC(=O)[C@@H](NC(=O)[C@H](CCC(=O)O)NC(=O)[C@H](CCCNC(=N)N)NC(=O)[C@H](CC(=O)O)NC(=O)[C@H](Cc1c[nH]c2ccccc12)NC(=O)[C@H](CCC(=O)O)NC(=O)[C@H](CCSC)NC(=O)[C@H](Cc1c[nH]c2ccccc12)NC(=O)CCNC(=O)[C@H](CS)NC(C)=O)[C@@H](C)CC)[C@@H](C)O)[C@@H](C)CC)C(=O)N[C@@H](CCC(=O)O)C(=O)N[C@@H](CCC(=O)O)C(=O)N[C@@H](CO)C(=O)N[C@@H](CCC(N)=O)C(=O)N[C@@H](CC(N)=O)C(=O)N[C@@H](CCC(N)=O)C(=O)N[C@@H](CCC(N)=O)C(=O)N[C@@H](CCC(=O)O)C(=O)N[C@@H](CCCCN)C(=O)N[C@@H](CC(N)=O)C(=O)O` (Ac-C[βAla]WMEWDREINNYTSLIHSLIEESQNQQEKN-OH), in the test with TZM-bl, the Ratio was found to be 6.01. The molecule further registered a half-inhibitory concentration (IC50) in test [1] of 19.7 nM.
As for `CC[C@H](C)[C@H](NC(=O)[C@H](CC(C)C)NC(=O)[C@H](CO)NC(=O)[C@H](Cc1cnc[nH]1)NC(=O)[C@@H](NC(=O)[C@H](CC(C)C)NC(=O)[C@H](CO)NC(=O)[C@@H](NC(=O)[C@H](Cc1ccc(O)cc1)NC(=O)[C@H](CC(N)=O)NC(=O)[C@H](CC(N)=O)NC(=O)[C@@H](NC(=O)[C@H](CCC(=O)O)NC(=O)[C@H](CCCNC(=N)N)NC(=O)[C@H](CC(=O)O)NC(=O)[C@H](Cc1c[nH]c2ccccc12)NC(=O)[C@H](CCC(=O)O)NC(=O)[C@H](CCSC)NC(=O)[C@H](Cc1c[nH]c2ccccc12)NC(=O)CCCCCNC(=O)[C@H](CS)NC(C)=O)[C@@H](C)CC)[C@@H](C)O)[C@@H](C)CC)C(=O)N[C@@H](CCC(=O)O)C(=O)N[C@@H](CCC(=O)O)C(=O)N[C@@H](CO)C(=O)N[C@@H](CCC(N)=O)C(=O)N[C@@H](CC(N)=O)C(=O)N[C@@H](CCC(N)=O)C(=O)N[C@@H](CCC(N)=O)C(=O)N[C@@H](CCC(=O)O)C(=O)N[C@@H](CCCCN)C(=O)N[C@@H](CC(N)=O)C(=O)O` (Ac-C[Ahx]WMEWDREINNYTSLIHSLIEESQNQQEKN-OH), the Ratio in the test on TZM-bl was determined as 2.41. Also, the IC50 in test [1] amounted to 49 nM.
As for `CC[C@H](C)[C@H](NC(=O)[C@H](CC(C)C)NC(=O)[C@H](CO)NC(=O)[C@H](Cc1cnc[nH]1)NC(=O)[C@@H](NC(=O)[C@H](CC(C)C)NC(=O)[C@H](CO)NC(=O)[C@@H](NC(=O)[C@H](Cc1ccc(O)cc1)NC(=O)[C@H](CC(N)=O)NC(=O)[C@H](CC(N)=O)NC(=O)[C@@H](NC(=O)[C@H](CCC(=O)O)NC(=O)[C@H](CCCNC(=N)N)NC(=O)[C@H](CC(=O)O)NC(=O)[C@H](Cc1c[nH]c2ccccc12)NC(=O)[C@H](CCC(=O)O)NC(=O)[C@H](CCSC)NC(=O)[C@H](Cc1c[nH]c2ccccc12)NC(=O)CCNCCOCCOCCOC(=O)[C@H](CS)NC(C)=O)[C@@H](C)CC)[C@@H](C)O)[C@@H](C)CC)C(=O)N[C@@H](CCC(=O)O)C(=O)N[C@@H](CCC(=O)O)C(=O)N[C@@H](CO)C(=O)N[C@@H](CCC(N)=O)C(=O)N[C@@H](CC(N)=O)C(=O)N[C@@H](CCC(N)=O)C(=O)N[C@@H](CCC(N)=O)C(=O)N[C@@H](CCC(=O)O)C(=O)N[C@@H](CCCCN)C(=O)N[C@@H](CC(N)=O)C(=O)O` (X1-WMEWDREINNYTSLIHSLIEESQNQQEKN-OH), the Ratio in the test with TZM-bl was 8.08. In test [1], this molecule returned a 50% inhibitory concentration (IC50) of 14.7 nM.
`CC[C@H](C)[C@H](NC(=O)[C@H](CC(C)C)NC(=O)[C@H](CO)NC(=O)[C@H](Cc1cnc[nH]1)NC(=O)[C@@H](NC(=O)[C@H](CC(C)C)NC(=O)[C@H](CO)NC(=O)[C@@H](NC(=O)[C@H](Cc1ccc(O)cc1)NC(=O)[C@H](CC(N)=O)NC(=O)[C@H](CC(N)=O)NC(=O)[C@@H](NC(=O)[C@H](CCC(=O)O)NC(=O)[C@H](CCCNC(=N)N)NC(=O)[C@H](CC(=O)O)NC(=O)[C@H](Cc1c[nH]c2ccccc12)NC(=O)[C@H](CCC(=O)O)NC(=O)[C@H](CCSC)NC(=O)[C@H](Cc1c[nH]c2ccccc12)NC(C)=O)[C@@H](C)CC)[C@@H](C)O)[C@@H](C)CC)C(=O)N[C@@H](CCC(=O)O)C(=O)N[C@@H](CCC(=O)O)C(=O)N[C@@H](CO)C(=O)O` (Ac-WMEWDREINNYTSLIHSLIEES-OH): the IC50 in test [1] came out at 1240 nM.
`CC[C@H](C)[C@H](NC(=O)[C@H](CC(C)C)NC(=O)[C@H](CO)NC(=O)[C@H](Cc1cnc[nH]1)NC(=O)[C@@H](NC(=O)[C@H](CC(C)C)NC(=O)[C@H](CO)NC(=O)[C@@H](NC(=O)[C@H](Cc1ccc(O)cc1)NC(=O)[C@H](CC(N)=O)NC(=O)[C@H](CC(N)=O)NC(=O)[C@@H](NC(=O)[C@H](CCC(=O)O)NC(=O)[C@H](CCCNC(=N)N)NC(=O)[C@H](CC(=O)O)NC(=O)[C@H](Cc1c[nH]c2ccccc12)NC(=O)[C@H](CCC(=O)O)NC(=O)[C@H](CCSC)NC(=O)[C@H](Cc1c[nH]c2ccccc12)NCCOCCOCCOC(=O)[C@H](CS)NC(C)=O)[C@@H](C)CC)[C@@H](C)O)[C@@H](C)CC)C(=O)N[C@@H](CCC(=O)O)C(=O)N[C@@H](CCC(=O)O)C(=O)N[C@@H](CO)C(=O)N[C@@H](CCC(N)=O)C(=O)N[C@@H](CC(N)=O)C(=O)N[C@@H](CCC(N)=O)C(=O)N[C@@H](CCC(N)=O)C(=O)N[C@@H](CCC(=O)O)C(=O)N[C@@H](CCCCN)C(=O)N[C@@H](CC(N)=O)C(=O)O` (H-[X2]MEWDREINNYTSLIHSLIEESQNQQEKN-OH): the Ratio in the test with TZM-bl stood at 7.69. The same molecule gave a half-inhibitory concentration (IC50) in test [1] of 15.4 nM.
On to `CC[C@H](C)[C@H](NC(=O)[C@H](CC(C)C)NC(=O)[C@H](CCC(=O)O)NC(=O)[C@H](CCC(=O)O)NC(=O)[C@@H](NC(=O)[C@H](CCCCN)NC(=O)[C@H](CCCCN)NC(=O)[C@@H](NC(=O)[C@H](Cc1ccc(O)cc1)NC(=O)[C@H](CCC(=O)O)NC(=O)[C@H](CCC(=O)O)NC(=O)[C@@H](NC(=O)[C@H](CCCCN)NC(=O)[C@H](CCCCN)NC(=O)[C@H](CC(=O)O)NC(=O)[C@H](Cc1c[nH]c2ccccc12)NC(=O)[C@H](CCC(=O)O)NC(=O)[C@H](CCC(=O)O)NC(=O)[C@H](Cc1c[nH]c2ccccc12)NC(C)=O)[C@@H](C)CC)[C@@H](C)O)[C@@H](C)CC)C(=O)N[C@@H](CCCCN)C(=O)N[C@@H](CCCCN)C(=O)N[C@@H](CO)C(=O)O` (Ac-WEEWDKKIEEYTKKIEELIKKS-OH), for which, in test [1], it took 345 nM to reach half-maximal inhibition (IC50). This lies in the sub-micromolar range.
As to `CC[C@H](C)[C@H](NC(=O)[C@H](CC(C)C)NC(=O)[C@H](CO)NC(=O)[C@H](Cc1cnc[nH]1)NC(=O)[C@@H](NC(=O)[C@H](CC(C)C)NC(=O)[C@H](CO)NC(=O)[C@@H](NC(=O)[C@H](Cc1ccc(O)cc1)NC(=O)[C@H](CC(N)=O)NC(=O)[C@H](CC(N)=O)NC(=O)[C@@H](NC(=O)[C@H](CCC(=O)O)NC(=O)[C@H](CCCNC(=N)N)NC(=O)[C@H](CC(=O)O)NC(=O)[C@H](Cc1c[nH]c2ccccc12)NC(=O)[C@H](CCC(=O)O)NC(=O)[C@H](CCSC)NC(=O)[C@H](Cc1c[nH]c2ccccc12)NC(=O)[C@H](CS)NC(C)=O)[C@@H](C)CC)[C@@H](C)O)[C@@H](C)CC)C(=O)N[C@@H](CCC(=O)O)C(=O)N[C@@H](CCC(=O)O)C(=O)N[C@@H](CO)C(=O)N[C@@H](CCC(N)=O)C(=O)N[C@@H](CC(N)=O)C(=O)N[C@@H](CCC(N)=O)C(=O)N[C@@H](CCC(N)=O)C(=O)N[C@@H](CCC(=O)O)C(=O)N[C@@H](CCCCN)C(=O)N[C@@H](CC(N)=O)C(=O)O` (Ac-CWMEWDREINNYTSLIHSLIEESQNQQEKN-OH), the Ratio in the test with TZM-bl came out at 2.84. This molecule also yielded an IC50 in test [1] of 41.6 nM.
The like results for `CC[C@H](C)[C@H](NC(=O)[C@H](CC(C)C)NC(=O)[C@H](CO)NC(=O)[C@H](Cc1cnc[nH]1)NC(=O)[C@@H](NC(=O)[C@H](CC(C)C)NC(=O)[C@H](CO)NC(=O)[C@@H](NC(=O)[C@H](Cc1ccc(O)cc1)NC(=O)[C@H](CC(N)=O)NC(=O)[C@H](CC(N)=O)NC(=O)[C@@H](NC(=O)[C@H](CCC(=O)O)NC(=O)[C@H](CCCNC(=N)N)NC(=O)[C@H](CC(=O)O)NC(=O)[C@H](Cc1c[nH]c2ccccc12)NC(=O)[C@H](CCC(=O)O)NC(=O)[C@H](CCSC)NC(=O)[C@H](Cc1c[nH]c2ccccc12)NC(C)=O)[C@@H](C)CC)[C@@H](C)O)[C@@H](C)CC)C(=O)N[C@@H](CCC(=O)O)C(=O)N[C@@H](CCC(=O)O)C(=O)N[C@@H](CO)C(=O)N[C@@H](CCC(N)=O)C(=O)N[C@@H](CC(N)=O)C(=O)N[C@@H](CCC(N)=O)C(=O)N[C@@H](CCC(N)=O)C(=O)N[C@@H](CCC(=O)O)C(=O)N[C@@H](CCCCN)C(=O)N[C@@H](CC(N)=O)C(=O)NCCCCCC(=O)N[C@@H](CS)C(=O)O` (Ac-WMEWDREINNYTSLIHSLIEESQNQQEKN[Ahx]C-OH) were, in that order, 0.58 and 203 nM.
